Experimental data: patent publication US12208159B2, “Compositions, methods and kits for treating a contact lens” (University of Houston System, priority 2016, dated 2025)
Values joined by “and” are separate entries in the source; they are usually repeats but may differ in a detail not shown here. Equal entries are not always repeated. Values belong to the compound of their own block, whether it stands above or below them.

How the values were obtained:
[1] = Time course release of individual compounds from contact lenses; format: physicochemical; settings: Comfilcon A
Description: The modified Comfilcon A lenses are placed into individual wells of a 24 well plate with 1 mL PBS in each well at room temperature. The PBS solution is replaced with fresh PBS every hour for up to 8 h or 15 h, or every 10 min for 2 h or 6 h. The amount of fluorescent compound released into the collected PBS aliquots is quantified spectrophotometrically based on the above standard curve. The amount of F-Cip released into the collected PBS aliquots is quantified using LC-MS (LCQ Deca XP plus with Surveyor LC, Thermo Fisher, Waltham, MA) with electrospray ionization in positive ion mode. Samples ([…] each) are loaded onto the analytical column at […] (Kinetex XB-C18, 2.×50 mm, […], Phenomenex) with the following gradient: 0-3 min, 10-75% (B); 3-7.5 min, 75-91% (B). The mobile phase consists of (A) water containing 0.1% formic acid and (B) acetonitrile containing 0.1% formic acid. Mass spectrometric parameters are as follows: 250° C. capillary temperature, 45 units sheath gas, 10 units aux gas and 4.5 kV spray voltage. […]

[2] = Loading of molecules into commercial contact lenses (Lotrafilcon B); format: physicochemical; settings: 24 hours at room temperature, listed as FITC-C8F15
Description: (§1) Briefly, commercial lenses are individually immersed in wells of a 24 well plate, each containing 1 mL PBS solution of FITC-F ([…]), FITC ([…]), Cip (100 mM) or F-Cip (100 mM), and incubated for 18 h. Then the lenses are washed with PBS three times for 5 min each. All incubation and wash solutions are collected and the amount of each compound is quantified by spectrophotometry. Standard curves are generated with seven standard samples with known concentrations for each individual compound of interest. Specifically, fluorescent compounds FITC and FITC-F are quantified by fluorescence emission at 520 nm (lex. 485 nm), and Cip and F-Cip are quantified by absorbance at 275 nm. The amount of each compound in the above collected solutions is then measured with the standard curve. The amount of the compound incorporated into lenses was determined by subtracting the amount in solution from the total amount added initially.
(§2) Commercial lenses of the above 4 types were removed from blister packs, and blotted gently to remove excess solution. Contact lenses were placed individually into glass vials and immersed in 1 mL of FITC-C8F15 or FITC solution (15.6 μM in phosphate buffered saline) for 24 hours at room temperature. At the end of incubation, lenses were washed three times using phosphate buffered saline. […]

[3] = Loading of molecules into commercial contact lenses (Comfilcon A); format: physicochemical
Description: as §1, §2

[4] = system: Pseudomonas aeruginosa (PA) ATCC 19660; experiment: Antibacterial activity of F-Cip (growth inhibition, absorbance at 620 nm); format: cell-based; settings: ATCC19660, P. aeruginosa ATCC 19660, 18 h at 37° C., n > 3
Description: The strain is inoculated and grown at 37° C. for 18 h. The bacterial suspension ([…]) is added into 100 mL of nutrient broth and incubated for 2 h to reach a log growth phase. The resulting bacterial suspension is adjusted to a concentration of ˜10^7 cfu/mL and […] are placed into each well of a 96 well plate. Fifty microliters of F-Cip solution are added into the 96 well plate and incubated at 37° C. for 18 h. The inhibition of microbial growth is determined by measuring the absorbance at 620 nm.

P. aeruginosa 19660 [5] = experiment: Ex vivo porcine eye infection model, antimicrobial activity of loaded contact lenses; design: species or system Pseudomonas aeruginosa (porcine eyes); settings: Comfilcon A lenses modified with the compound, on infected scratched porcine eyes, 12 h
Description: Upon arrival, eyelids and connective tissues are removed and the porcine eyes are sanitized using 5% penicillin/streptomycin (Sigma-Aldrich, St. Louis, MO) for 1 h followed by washing thrice with PBS. Six scratch wounds with a 3×3 crosshatch pattern of length about 1 cm are created on each cornea using a 27G needle. The eyes are placed into holders and 100 ml of bacterial solution containing 10^6 CFU (see “Antibacterial activity of F-Cip” section discussed above) applied to each cornea. The eyes are left at room temperature in a biosafety cabinet for 5 h. After rinsing with 10 mL of PBS, control and modified Comfilcon A contact lenses are placed individually onto the eyes. […] One eye without scratches but incubated with bacteria served as an additional control. A custom-made apparatus is used to flow culture medium over the surface of the porcine eyes. […] Then 100 ml of the bacterial suspension from each sample was taken out and added into a 96-well plate in triplicate, and absorbance at 620 nm was measured and plotted as percentage of bacterial growth inhibition compared to the corneas infected with bacteria but without any treatments. […]

P. aeruginosa 19660 [6] = experiment: In vitro antimicrobial activity of F-Cip-loaded Comfilcon A contact lenses; format: cell-based, Pseudomonas aeruginosa; settings: Comfilcon A lenses loaded with the compound
[7] = Lens transparency after modification (light transmission); settings: Comfilcon A lenses embedded with the compound
[8] = system: human telomerase corneal epithelial cells (hTCEpi); format: cell-based
Description: Telomerase modified human corneal epithelial cells were seeded into wells of a 96 well plate with […] KGM-2 medium (Lonza Ltd, Switzerland) and incubated at 37° C. until ˜80% confluence. […] Cells treated with 0.05% benzalkonium chloride (BAC) and without any treatment served as controls. The plate was incubated at 37° C. for 18 h, and cell viability was determined using a cell counting kit-8 assay. […] All lenses are taken out, and cell viability was determined using a cell counting kit-8 assay (Dojindo Molecular Technologies, Inc. Japan).

duration of nearly linear release ([1]; solution exchange rate 1 mL/h): 6 h
release profile ([1]; solution exchange rate 1 mL/h): sustained profile
release rate ([1]; solution exchange rate 1 mL/h): 10.5 % per hour
release reached at 15 h ([1]; solution exchange rate 1 mL/h, 15 h): ~90%
duration of sustained linear release ([1]; solution exchange rate 6 mL/h): 120 min
release rate ([1]; solution exchange rate 6 mL/h): 26.5 % per hour
time to reach release plateau ([1]; solution exchange rate 6 mL/h): 270 min
amount attached relative to the amount of FITC attached [2]: 6.5 times and 5 times
amount attached relative to the amount of FITC attached ([3]; Comfilcon A, 24 hours at room temperature, listed as FITC-C8F15): 11 times and 9 times
Compound: O=C(O)c1cc(NC(=S)NCC(F)(F)C(F)(F)C(F)(F)C(F)(F)C(F)(F)C(F)(F)C(F)(F)F)ccc1-c1c2ccc(=O)cc-2oc2cc(O)ccc12 [Compound 6]

release at plateau ([1]; solution exchange rate 1 mL/h): ~60%
release profile ([1]; solution exchange rate 1 mL/h): typical burst release profile
time to reach release plateau (no more release) ([1]; solution exchange rate 1 mL/h): 3 h
amount loaded onto lens ([3]; Comfilcon A lenses, incubated 18 h in PBS solution): 3.56±4.51 nmol/lens
transmission profile compared with fresh unmodified lens ([7]; between 200 nm and 800 nm): significantly overlap
Transmission of modified lenses ([7]; between 400 nm and 750 nm): about 100%
Compound: O=C(O)c1cn(C2CC2)c2cc(N3CCNCC3)c(F)cc2c1=O [Compound 12, Ciprofloxacin]
IC50 [4]: 130 ± 35 nM
bacterial growth inhibition (P. aeruginosa 19660 [5]): 37.5±8.2%
growth inhibition (P. aeruginosa 19660 [6]): 35.2%

Compound: Benzalkonium chloride [Benzalkonium chloride (BAC)]
cells killed [8]: about 100%

Compound: fluorescein isothiocyanate [Compound 7]
release at plateau ([1]; solution exchange rate 1 mL/h): ~60%
release profile ([1]; solution exchange rate 1 mL/h): typical burst release profile
time to reach release plateau (no more release) ([1]; solution exchange rate 1 mL/h): ≤ 2 h
time to reach release plateau ([1]; solution exchange rate 6 mL/h): ≤ 50 min
